Results reported in patent US11840686B2, “Modulation of prekallikrein (PKK) expression” (Ionis Pharmaceuticals, Inc., priority 2013, dated 2023).
Strand notation (5' to 3'): a small letter for the sugar, then the base; units joined by * are phosphorothioate-linked, units joined directly phosphodiester-linked; [ ] holds rarer units or linkages, { } end groups; capitals alone tell only the bases. e = 2'-O-(2-methoxyethyl) (MOE); [5mC] = 5-methylcytosine; d = 2'-deoxy (DNA)

Tests used:
[1] = tested on: human PKK mRNA; experiment: Dose-dependent antisense inhibition of human PKK in HepaRG cells, 0.19-5.00 uM (Example 5); assay type: cell-based; details: for percent inhibition of PKK mRNA, 0.19 μM: 0.19 μM antisense oligonucleotide; for percent inhibition of PKK mRNA, 0.56 μM: 0.56 μM antisense oligonucleotide; for percent inhibition of PKK mRNA, 1.67 μM: 1.67 μM antisense oligonucleotide; for percent inhibition of PKK mRNA, 5.00 μM: 5.00 μM antisense oligonucleotide
Method: Cells were plated at a density of 20,000 cells per well and transfected using electroporation with 0.19 μM, 0.56 μM, 1.67 μM, and 5.00 μM concentrations of antisense oligonucleotide. After a treatment period of approximately 16 hours, RNA was isolated from the cells and PKK mRNA levels were measured by quantitative real-time PCR. Human PKK primer probe set RTS3454 was used to measure mRNA levels. PKK mRNA levels were adjusted according to total RNA content, as measured by RIBOGREEN®. The antisense oligonucleotides were tested in a series of experiments that had similar culture conditions.
The half maximal inhibitory concentration (IC50) of each oligonucleotide is also presented.

[2] = tested on: human PKK mRNA; experiment: Antisense inhibition of human PKK mRNA in HepaRG cells, 5,000 nM (Example 2); assay type: cell-based
In short: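 Chimeric MOE gapmers with full phosphorothioate backbones were tested once at 5,000 nM in electroporated HepaRG cells. After about 24 hours, quantitative PCR measured PKK mRNA relative to untreated control cells.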

[3] = Table 34, HepaRG, electroporation, ~16 h
[4] = Table 13, human PKK mRNA in HepaRG cells, 5-10-5 gapmers
[5] = HepaRG cells, electroporation, approximately 16 hours, Table 39
[6] = 4 point dose response, HepaRG cells, Table 39
[7] = HepaRG cells, electroporation, approximately 16 hours, Table 38
[8] = human PKK mRNA, HepaRG cells, 5,000 nM antisense oligonucleotide, Table 18
[9] = HepaRG cells, electroporation, approximately 16 hours, Table 40
[10] = HepaRG cells, electroporation, approximately 16 hours, Table 36

## 546825 (eG*eT*eA*eT*e[5mC]*dA*d[5mC]*dT*dG*dT*dA*d[5mC]*dT*dA*dG*eT*eT*eT*e[5mC]*e[5mC]; antisense) [compound 546825]
[1]; HepaRG cells, electroporation, approximately 16 hours, Table 41
  percent inhibition of PKK at 5.00 μM: 99%
[1]; 0.19 0μM, HepaRG cells, electroporation, approximately 16 hours, Table 41
  percent inhibition of PKK at 0.19 0μM: 38%
[1]; 0.56 0μM, HepaRG cells, electroporation, approximately 16 hours, Table 41
  percent inhibition of PKK at 0.56 0μM: 82%
[1]; 4 point dose response, HepaRG cells, Table 41
  IC50: 200 nM
[1]; [3]
  percent inhibition of PKK at 0.19 μM: 46%
  percent inhibition of PKK at 0.56 μM: 73%
  percent inhibition of PKK at 1.67 μM: 86%
  percent inhibition of PKK at 5.00 μM: 88%
[1]; Table 34, PKK mRNA, HepaRG, electroporation, ~16 h
  IC50: 200 nM
[2]; [4]
  % inhibition: 96%

## 546870 (e[5mC]*eT*eG*eT*eA*d[5mC]*d[5mC]*dT*dA*dT*dA*dA*d[5mC]*dT*d[5mC]*eT*eA*eA*e[5mC]*eA; antisense) [compound 546870]
[1]; [5]
  percent inhibition of PKK at 0.19 μM: 35%
  percent inhibition of PKK at 0.56 μM: 42%
  percent inhibition of PKK at 1.67 μM: 80%
  percent inhibition of PKK at 5.00 μM: 95%
[1]; [6]
  IC50: 500 nM
[1]; HepaRG cells
  percent inhibition of PKK mRNA, 0.19 μM: 36%
  percent inhibition of PKK mRNA, 0.56 μM: 34%
  percent inhibition of PKK mRNA, 1.67 μM: 61%
  percent inhibition of PKK mRNA, 5.00 μM: 91%
[1]; HepaRG cells, 0.19-5.00 μM
  IC50: 1000 nM
[2]; human PKK mRNA in HepaRG cells, 5-10-5 gapmers, Table 14
  % inhibition: 87%

## 548744 (DNA eT*e[5mC]*eA*e[5mC]*dT*dG*dT*dA*d[5mC]*dT*dA*dG*dT*eT*eT*e[5mC]*e[5mC]; antisense) [compound 548744]
[1]; [7]
  percent inhibition of PKK at 0.19 μM: 14%
  percent inhibition of PKK at 0.56 μM: 35%
  percent inhibition of PKK at 1.67 μM: 63%
  percent inhibition of PKK at 5.00 μM: 83%
[1]; 4 point dose response, HepaRG cells, Table 38
  IC50: 1000 nM
[2]; [8]
  % inhibition: 83%

## 547019 (eG*eA*eT*e[5mC]*eG*dG*dT*dG*dG*dT*dG*dG*dG*dA*dT*eT*eG*eG*eT*e[5mC]; antisense) [compound 547019]
[1]; [9]
  percent inhibition of PKK at 0.19 μM: 0%
  percent inhibition of PKK at 0.56 μM: 6%
  percent inhibition of PKK at 1.67 μM: 54%
  percent inhibition of PKK at 5.00 μM: 86%
[1]; 4 point dose response, HepaRG cells, Table 40
  IC50: 1600 nM
[2]; HepaRG cells, 5,000 nM antisense oligonucleotide, 5-10-5 gapmers, Table 17
  % inhibition: 83%

## 546833 (eA*e[5mC]*eT*e[5mC]*eT*dA*dA*d[5mC]*dA*dG*dT*dA*dT*d[5mC]*dA*e[5mC]*eT*eG*eT*eA; antisense) [compound 546833]
[1]; [10]
  percent inhibition of PKK at 0.19 μM: 8%
  percent inhibition of PKK at 0.56 μM: 33%
  percent inhibition of PKK at 1.67 μM: 74%
  percent inhibition of PKK at 5.00 μM: 94%
[1]; 4 point dose response, HepaRG cells, Table 36
  IC50: 900 nM
[2]; [4]
  % inhibition: 90%

## 548757 (antisense eA*eG*eT*eA*dT*d[5mC]*dA*d[5mC]*dT*dG*dT*dA*d[5mC]*eT*eA*eG*eT) [compound 548757]
[1]; [5]
  percent inhibition of PKK at 0.19 μM: 18%
  percent inhibition of PKK at 0.56 μM: 49%
  percent inhibition of PKK at 1.67 μM: 82%
  percent inhibition of PKK at 5.00 μM: 93%
[1]; [6]
  IC50: 600 nM
[2]; [8]
  % inhibition: 87%

## 547275 (antisense eT*eT*eG*eG*eA*dG*dG*dT*dG*dA*dG*dT*d[5mC]*dT*d[5mC]*eT*eT*eG*eT*e[5mC]) [compound 547275]
[1]; [5]
  percent inhibition of PKK at 0.19 μM: 34%
  percent inhibition of PKK at 0.56 μM: 66%
  percent inhibition of PKK at 1.67 μM: 82%
  percent inhibition of PKK at 5.00 μM: 95%
[1]; [6]
  IC50: 300 nM
[1]; HepaRG cells
  percent inhibition of PKK mRNA, 0.19 μM: 56%
  percent inhibition of PKK mRNA, 0.56 μM: 16%
  percent inhibition of PKK mRNA, 1.67 μM: 80%
  percent inhibition of PKK mRNA, 5.00 μM: 86%
[1]; HepaRG cells, 0.19-5.00 μM
  IC50: 1200 nM
[2]; HepaRG cells, electroporation with 5,000 nM antisense oligonucleotide, approximately 24 hours, PKK mRNA by RT-PCR (RTS3454), relative to untreated control cells, Table 5 experiment
  % inhibition: 87%
